One data set concerns the target Acetylcholinesterase (Electrophorus electricus, UniProt O42275). Description: Inhibition of Electrophorus electricus AChE using acetylthiocholine iodide as substrate by Ellman's method.
A further data set deals with Cholinesterase (Equus caballus, UniProt P81908). Kind of data set: Inhibition of BuChE in equine serum using Butyrylthiocholine iodide as substrate by Ellman's method. In kind it is cell-free. (In general: In Ellman's method for cholinesterases, released thiocholine reacts with DTNB.)
The subject of another data set is SH-SY5Y. Description: cells. The settings on record: Homo sapiens, 72 h. It is filed as ADME, cell-based.
Data set [1] can be described thus: Solubility of compound in <1 % DMSO. In kind it is physicochemical.
The nature of data set [2]: Solubility of compound in water at 10 mM. In kind it is physicochemical. To be noted: buffer, 10000 µM.

Bounds are passed on as bounds.

Chain of Acetylcholinesterase (O42275 whole entry): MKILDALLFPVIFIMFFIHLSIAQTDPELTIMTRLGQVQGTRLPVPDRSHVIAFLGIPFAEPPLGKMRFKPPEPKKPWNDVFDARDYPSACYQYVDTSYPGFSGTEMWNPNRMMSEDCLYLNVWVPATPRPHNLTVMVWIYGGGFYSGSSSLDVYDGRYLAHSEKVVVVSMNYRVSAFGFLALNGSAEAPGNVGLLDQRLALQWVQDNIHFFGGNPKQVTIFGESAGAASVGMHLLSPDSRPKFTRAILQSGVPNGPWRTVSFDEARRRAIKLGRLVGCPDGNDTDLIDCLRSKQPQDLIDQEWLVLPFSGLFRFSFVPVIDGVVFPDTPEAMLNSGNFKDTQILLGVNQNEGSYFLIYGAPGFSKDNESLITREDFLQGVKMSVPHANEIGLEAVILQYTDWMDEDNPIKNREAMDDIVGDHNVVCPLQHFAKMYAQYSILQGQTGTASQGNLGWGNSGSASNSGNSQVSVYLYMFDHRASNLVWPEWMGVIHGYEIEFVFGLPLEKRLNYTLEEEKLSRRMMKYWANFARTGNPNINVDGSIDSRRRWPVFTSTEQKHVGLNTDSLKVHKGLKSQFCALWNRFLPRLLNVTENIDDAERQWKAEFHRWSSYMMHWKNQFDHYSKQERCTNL
Chain of Cholinesterase (P81908 whole entry): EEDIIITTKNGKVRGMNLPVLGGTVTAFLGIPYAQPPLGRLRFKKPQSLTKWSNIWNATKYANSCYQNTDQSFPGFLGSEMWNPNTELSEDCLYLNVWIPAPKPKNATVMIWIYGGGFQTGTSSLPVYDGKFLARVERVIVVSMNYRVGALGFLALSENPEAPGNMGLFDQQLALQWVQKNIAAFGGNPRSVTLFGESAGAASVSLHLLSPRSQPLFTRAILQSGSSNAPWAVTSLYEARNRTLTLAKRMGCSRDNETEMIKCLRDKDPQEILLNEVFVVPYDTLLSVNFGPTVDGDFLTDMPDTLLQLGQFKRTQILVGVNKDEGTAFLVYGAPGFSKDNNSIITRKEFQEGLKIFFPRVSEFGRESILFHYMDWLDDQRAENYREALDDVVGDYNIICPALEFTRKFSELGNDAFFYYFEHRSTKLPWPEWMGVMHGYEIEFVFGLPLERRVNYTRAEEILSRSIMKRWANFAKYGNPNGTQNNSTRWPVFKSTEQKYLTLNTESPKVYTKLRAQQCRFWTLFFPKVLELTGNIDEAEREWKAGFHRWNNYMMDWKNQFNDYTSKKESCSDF

What is called IC50 is the midpoint of a concentration-inhibition curve. A high value points to a need for much substance. On to `O=C(NCCc1c[nH]c2ccccc12)C1CCN(Cc2ccccc2)CC1`, for which the IC50 on Acetylcholinesterase was 25.6 µM; against Cholinesterase it was greater than 100 µM; in the data set with SH-SY5Y it was 40.5 µM. The values for the solubility entry in data set [1] and in data set [2] were “Soluble” and “Insoluble”, respectively.

As for `COc1cc2c(cc1OC)-c1nc(NC(=O)C3CCN(Cc4ccccc4)CC3)sc1C2`, the IC50 was greater than 100 µM at Cholinesterase and 31.3 µM with SH-SY5Y. Also, the solubility entry in data set [1] is reported as “Soluble”; in data set [2], “Insoluble”.

For `Cc1c(NC(=O)C2CCN(Cc3ccccc3)CC2)c(=O)n(-c2ccccc2)n1C`, the IC50 was 5.94 µM at Acetylcholinesterase, greater than 100 µM against Cholinesterase and greater than 100 µM in the data set on SH-SY5Y. Besides, the solubility result in data set [1] is given as “Soluble”; in data set [2] it was “Insoluble”.

Turning to `O=C(Nc1nccs1)C1CCN(Cc2ccccc2)CC1`, the figures for the IC50 against Acetylcholinesterase, at Cholinesterase and in the data set on SH-SY5Y were 51.1 µM, greater than 100 µM and 76.6 µM, respectively. The solubility result is listed as “Soluble” in data set [1] and “Insoluble” in data set [2].

With `O=C(NC1CCCc2ccccc21)C1CCN(Cc2ccccc2)CC1` (stereo not given), the results for the concentration for half-maximal inhibition (IC50) against Acetylcholinesterase, against Cholinesterase and with SH-SY5Y were greater than 100 µM, greater than 100 µM and 99.3 µM, respectively. The values for the solubility entry in data set [1] and in data set [2] were “Soluble” and “Insoluble”, respectively.

For the compound `O=C(NCCN1CCCCC1)C1CCN(Cc2ccccc2)CC1`, the IC50 at Acetylcholinesterase was 82.1 µM; against Cholinesterase, greater than 100 µM; in the data set with SH-SY5Y it was greater than 100 µM. In addition, the solubility result in data set [1] was “Soluble”; in data set [2], “Insoluble”.

Regarding `O=C(NCc1ccccn1)C1CCN(Cc2ccccc2)CC1`, the IC50 is 30.9 µM on Acetylcholinesterase, greater than 100 µM against Cholinesterase and greater than 100 µM in the data set with SH-SY5Y. For the same compound, the results for the solubility entry in data set [1] and in data set [2] were “Soluble” and “Insoluble”, respectively.

For the compound `O=C(NCCNc1cccc2ccccc12)C1CCN(Cc2ccccc2)CC1`, the results for the IC50 against Acetylcholinesterase, at Cholinesterase and in the data set with SH-SY5Y were 14 µM, greater than 100 µM and 13.6 µM, respectively. In addition, the figures for the solubility result in data set [1] and in data set [2] were “Soluble” and “Insoluble”, respectively.

Regarding `COc1cc(CCNC(=O)C2CCN(Cc3ccccc3)CC2)cc(OC)c1OC`, the IC50 against Acetylcholinesterase, against Cholinesterase and with SH-SY5Y was greater than 100 µM in each case. Besides, the solubility entry in data set [1] is listed as “Soluble”; in data set [2], “Insoluble”.

Take `O=C(NCCN1CCOCC1)C1CCN(Cc2ccccc2)CC1`: the IC50 against Acetylcholinesterase is greater than 100 µM; against Cholinesterase it was greater than 100 µM; in the data set with SH-SY5Y it was 73.4 µM. Also, the solubility entry in data set [1] is given as “Soluble”; in data set [2] it was “Insoluble”.

With `O=C(NCCc1c[nH]cn1)C1CCN(Cc2ccccc2)CC1`, the IC50 against Acetylcholinesterase, against Cholinesterase and in the data set with SH-SY5Y was greater than 100 µM each time. Besides, the figures for the solubility result in data set [1] and in data set [2] were “Soluble” and “Insoluble”, respectively.

As for `O=C(NCc1ccncc1)C1CCN(Cc2ccccc2)CC1`, the IC50 on Acetylcholinesterase is 58.2 µM; against Cholinesterase, greater than 100 µM; in the data set with SH-SY5Y, 3.37 µM. The solubility entry is on record as “Soluble” in data set [1] and “Insoluble” in data set [2].

In the case of `O=C(NCc1cccnc1)C1CCN(Cc2ccccc2)CC1`, the half-inhibitory concentration (IC50) at Acetylcholinesterase is 58.9 µM; on Cholinesterase it was greater than 100 µM; with SH-SY5Y, greater than 100 µM. In addition, the results for the solubility result in data set [1] and in data set [2] were “Soluble” and “Insoluble”, respectively.

Turning to `O=C(NCc1ccco1)C1CCN(Cc2ccccc2)CC1`, the IC50 against Acetylcholinesterase, against Cholinesterase and with SH-SY5Y was greater than 100 µM in each case. For the same compound, the values for the solubility result in data set [1] and in data set [2] were “Soluble” and “Insoluble”, respectively.

Take `COc1ccccc1CNC(=O)C1CCN(Cc2ccccc2)CC1`: the figures for the IC50 at Acetylcholinesterase, at Cholinesterase and in the data set on SH-SY5Y were 44.4 µM, greater than 100 µM and 50.9 µM, respectively. Besides, the solubility entry in data set [1] is “Soluble”; in data set [2], “Insoluble”.

Turning to `COc1cc2c(cc1OC)C(=O)C(CC1CCN(Cc3ccccc3)CC1)C2` (stereo not given) [DONEPEZIL], the IC50 in the data set on SH-SY5Y was 95.1 µM.

The record behind these values is ChEMBL document CHEMBL4351023, “Novel N-benzylpiperidine carboxamide derivatives as potential cholinesterase inhibitors for the treatment of Alzheimer's disease” (Eur J Med Chem, 2019).
